The record followed here is article PMC10941402, “Abcg2a is the functional homolog of human ABCG2 expressed at the zebrafish blood–brain barrier” (Fluids and Barriers of the CNS, 2024).

Data set [1] concerns T1, Empty vector.
T1 construct: HEK-293 HEK-293 stably transfected with empty pcDNA3.1
The data set is described as follows: cells. More on the design: species or system HEK-293; CellTiter-Glo growth inhibition of transporter-transfected HEK-293 cells, luminescence. The settings on record: Homo sapiens, HEK293, 72 h. Here is the method: (§1) Trypsinized cells were plated at 5,000 cells/well in white opaque 96-well plates and allowed to adhere overnight. Drugs were then added, with each concentration tested in triplicate, and cells were incubated for 72 h. Cell growth was assessed using the CellTiter-Glo (Promega, Madison, WI) reagent, according to the manufacturer’s instructions. Luminescence was measured on a Tecan Infinite M200 Pro microplate reader (Tecan Group, Morrisville, NC, RRID:SCR_019033). […] Relative resistance (RR) values are the ratio of the GI50 values of the transporter transfected versus the empty vector-transfected HEK-293 cells. HEK-293 cells (ATCC, Manassas, VA, RRID:CVCL_0045) were transfected with empty pcDNA3.1 vector or with vector containing full-length abcg2a (NM_001042775), abcg2b (NM_001039066), abcg2c (XM_005156523) or abcg2d (NM_001042772) (all from Genscript, Piscataway, NJ), flanked by a C-terminal FLAG tag sequence. The R-5 cell line was generated as previously described from HEK-293 cells transfected with full-length ABCG2 [18]. Transfected cells were cultured at 37 °C and at 5% CO2 in EMEM (Quality Biological, Gaithersburg, MD) supplemented with 10% fetal calf serum, penicillin/streptomycin (Quality Biological) and 2 mg/ml G418 (Mediatech, Manassas, VA). To determine if zebrafish Abcg2a-d were able to confer resistance to known cytotoxic substrates of ABCG2, cytotoxicity assays were performed and quantified by the drug concentration that produces 50% cell growth inhibition (GI50). Among the zebrafish Abcg2 homologs, Abcg2a conferred the highest level of resistance to MLN7243 (a ubiquitin activating enzyme inhibitor), MLN4924 (NEDD8 activating enzyme inhibitor), and CUDC-101 (histone deacetylase and receptor tyrosine kinase inhibitor) (Fig. 2, Additional file 5: Table S1). Abcg2d conferred the least resistance to THZ 531 (CDK12/13 inhibitor), CUDC-101, and gedatolisib (an inhibitor of phosphatidylinositol-3-kinase (PI3K) and mammalian target of rapamycin (mTOR)). […] Abcg2b and Abcg2c often conferred similar levels of resistance to the same substates, as evidenced by results with MLN7243, MLN4924, THZ 531, CUDC-101 and gedatolisib.

In data set [2] the test system is T2, Abcg2a.
T2 construct: HEK-293 HEK-293 stably expressing full-length FLAG-tagged zebrafish Abcg2a
The data set can be described thus: cells. Also on record: species or system HEK-293; CellTiter-Glo growth inhibition of transporter-transfected HEK-293 cells, luminescence. The following applies: Homo sapiens, HEK293, 72 h; cells expressing zebrafish Abcg2a. Here is the method:
as §1

Data set [3] deals with T3, Abcg2d.
T3 construct: HEK-293 HEK-293 stably expressing full-length FLAG-tagged zebrafish Abcg2d
The data set is described as follows: cells. More on the design: species or system HEK-293; CellTiter-Glo growth inhibition of transporter-transfected HEK-293 cells, luminescence. The following applies: Homo sapiens, HEK293, 72 h; cells expressing zebrafish Abcg2d. How it is done:
as §1

Data set [4] concerns T4, Abcg2c.
T4 construct: HEK-293 HEK-293 stably expressing full-length FLAG-tagged zebrafish Abcg2c
The data set is described as follows: cells. Also on record: species or system HEK-293; CellTiter-Glo growth inhibition of transporter-transfected HEK-293 cells, luminescence. The following applies: Homo sapiens, HEK293, 72 h; cells expressing zebrafish Abcg2c. How it is done: as §1

The subject of data set [5] is T5, Abcg2b.
T5 construct: HEK-293 HEK-293 stably expressing full-length FLAG-tagged zebrafish Abcg2b
The data set can be described thus: cells. Also on record: species or system HEK-293; CellTiter-Glo growth inhibition of transporter-transfected HEK-293 cells, luminescence. The following applies: Homo sapiens, HEK293, 72 h; cells expressing zebrafish Abcg2b. How it is done:
as §1

The subject of data set [6] is T6, ABCG2.
T6 construct: HEK-293 R-5 HEK-293 stably expressing full-length human ABCG2 (R-5)
The data set can be described thus: cells. Also on record: species or system HEK-293; CellTiter-Glo growth inhibition of transporter-transfected HEK-293 cells, luminescence. The following applies: HEK293, 72 h; cells expressing human ABCG2. How it is done:
as §1

The target of data set [7] is T7, Abcg2a (Danio rerio, UniProt Q2Q447).
T7 construct: homodimer
T7 sequence (Q2Q447 1-643): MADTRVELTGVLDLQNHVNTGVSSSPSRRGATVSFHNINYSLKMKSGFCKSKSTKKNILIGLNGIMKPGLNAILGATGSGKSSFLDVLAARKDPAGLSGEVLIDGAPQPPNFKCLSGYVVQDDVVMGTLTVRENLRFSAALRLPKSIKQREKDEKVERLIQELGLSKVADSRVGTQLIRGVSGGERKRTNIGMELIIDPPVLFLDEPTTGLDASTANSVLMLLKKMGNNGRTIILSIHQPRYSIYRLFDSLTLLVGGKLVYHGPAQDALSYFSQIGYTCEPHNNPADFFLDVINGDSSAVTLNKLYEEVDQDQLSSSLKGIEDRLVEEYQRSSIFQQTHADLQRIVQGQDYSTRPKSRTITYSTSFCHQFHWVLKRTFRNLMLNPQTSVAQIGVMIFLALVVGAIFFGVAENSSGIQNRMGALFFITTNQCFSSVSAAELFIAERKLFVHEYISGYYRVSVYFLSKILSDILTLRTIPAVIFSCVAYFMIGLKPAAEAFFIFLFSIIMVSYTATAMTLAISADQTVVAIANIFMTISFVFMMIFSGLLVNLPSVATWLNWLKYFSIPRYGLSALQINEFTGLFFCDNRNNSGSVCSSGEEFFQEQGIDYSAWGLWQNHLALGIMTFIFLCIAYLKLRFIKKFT
The data set is described as follows: flow cytometry efflux assay. It is filed as cell-based. The following applies: 5 µM substrate, 37 °C, with and without inhibitor.

Data set [8] concerns the target T8, Abcg2c (Danio rerio, UniProt A0A8M2B3F2).
T8 construct: homodimer
T8 sequence (A0A8M2B3F2 1-640): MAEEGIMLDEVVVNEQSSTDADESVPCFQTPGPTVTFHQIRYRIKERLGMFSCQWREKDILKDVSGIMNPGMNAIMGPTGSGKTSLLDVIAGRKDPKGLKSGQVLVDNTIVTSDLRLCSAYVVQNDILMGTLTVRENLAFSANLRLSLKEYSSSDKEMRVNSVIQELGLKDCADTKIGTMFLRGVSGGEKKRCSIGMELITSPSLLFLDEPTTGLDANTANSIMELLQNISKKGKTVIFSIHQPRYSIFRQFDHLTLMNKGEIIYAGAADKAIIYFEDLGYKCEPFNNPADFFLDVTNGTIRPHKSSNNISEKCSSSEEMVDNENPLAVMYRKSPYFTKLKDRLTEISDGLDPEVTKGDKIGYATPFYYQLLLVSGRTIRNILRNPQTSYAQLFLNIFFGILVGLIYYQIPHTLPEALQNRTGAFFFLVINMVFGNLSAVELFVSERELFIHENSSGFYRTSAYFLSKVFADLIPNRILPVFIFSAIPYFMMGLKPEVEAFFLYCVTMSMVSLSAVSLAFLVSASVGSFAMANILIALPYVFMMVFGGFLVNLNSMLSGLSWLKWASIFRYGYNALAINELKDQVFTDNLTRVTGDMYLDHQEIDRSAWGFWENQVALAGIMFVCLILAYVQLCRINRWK
The data set can be described thus: flow cytometry efflux assay. The following applies: 5 µM substrate, 37 °C, with and without inhibitor. It is filed as cell-based.

In data set [9] the target is T9, ABCG2 (Homo sapiens, UniProt Q9UNQ0).
T9 construct: homodimer
T9 sequence (Q9UNQ0 1-655): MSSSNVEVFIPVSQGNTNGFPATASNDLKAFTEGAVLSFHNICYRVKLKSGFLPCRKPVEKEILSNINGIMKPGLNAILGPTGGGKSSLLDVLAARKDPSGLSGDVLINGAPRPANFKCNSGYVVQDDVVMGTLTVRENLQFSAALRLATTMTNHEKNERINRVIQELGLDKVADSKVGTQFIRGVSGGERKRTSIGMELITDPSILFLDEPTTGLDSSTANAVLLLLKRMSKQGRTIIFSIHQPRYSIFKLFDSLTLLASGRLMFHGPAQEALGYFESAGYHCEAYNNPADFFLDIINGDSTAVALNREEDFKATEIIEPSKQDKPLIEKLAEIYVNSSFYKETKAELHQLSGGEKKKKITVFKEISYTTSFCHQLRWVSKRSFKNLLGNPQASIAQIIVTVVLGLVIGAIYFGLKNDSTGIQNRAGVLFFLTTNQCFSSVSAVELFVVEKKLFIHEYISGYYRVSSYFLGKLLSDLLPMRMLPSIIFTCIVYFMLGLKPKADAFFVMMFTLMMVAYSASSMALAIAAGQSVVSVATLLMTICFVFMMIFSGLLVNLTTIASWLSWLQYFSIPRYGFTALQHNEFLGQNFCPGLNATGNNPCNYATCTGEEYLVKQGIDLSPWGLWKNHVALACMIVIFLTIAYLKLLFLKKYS
The data set can be described thus: flow cytometry efflux assay. It is filed as cell-based. The settings on record: 5 µM substrate, 37 °C, with and without inhibitor.

Data set [10] addresses T10, Abcg2b (Danio rerio, UniProt Q2Q446).
T10 construct: homodimer
T10 sequence (Q2Q446 1-618): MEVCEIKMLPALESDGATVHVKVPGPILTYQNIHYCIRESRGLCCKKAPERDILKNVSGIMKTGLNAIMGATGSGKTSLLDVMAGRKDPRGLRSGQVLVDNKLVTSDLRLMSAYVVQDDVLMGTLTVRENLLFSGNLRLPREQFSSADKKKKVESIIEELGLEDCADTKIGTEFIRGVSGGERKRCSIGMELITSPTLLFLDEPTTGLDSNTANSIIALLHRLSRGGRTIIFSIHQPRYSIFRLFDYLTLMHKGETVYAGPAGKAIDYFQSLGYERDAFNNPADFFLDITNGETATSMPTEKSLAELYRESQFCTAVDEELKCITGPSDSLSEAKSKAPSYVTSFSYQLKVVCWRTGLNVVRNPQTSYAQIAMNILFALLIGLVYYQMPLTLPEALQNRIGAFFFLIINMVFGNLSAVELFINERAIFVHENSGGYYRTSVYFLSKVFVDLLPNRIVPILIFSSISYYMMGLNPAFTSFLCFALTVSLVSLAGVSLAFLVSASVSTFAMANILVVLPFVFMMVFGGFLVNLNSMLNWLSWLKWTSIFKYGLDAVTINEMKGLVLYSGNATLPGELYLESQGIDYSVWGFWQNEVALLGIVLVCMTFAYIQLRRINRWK
The data set can be described thus: flow cytometry efflux assay. It is filed as cell-based. The following applies: 5 µM substrate, 37 °C, with and without inhibitor.

Molecules are shown by their SMILES.

Regarding `CN(C)C1CCN(C(=O)c2ccc(NC(=O)Nc3ccc(-c4nc(N5CCOCC5)nc(N5CCOCC5)n4)cc3)cc2)CC1` [Gedatolicib, gedatolisib], the GI50 in [1] is 0.2 ± 0.01 µM; in data set [2], 1.39 ± 0.19 µM; in [3] it was 0.82 ± 0.5 µM; in data set [4] it was 3.26 ± 0.49 µM; in data set [5], 4.06 ± 1.5 µM; in data set [6], 3.84 ± 1.5 µM.
In the case of `O=C1c2c(O)ccc(O)c2C(=O)c2c(NCCNCCO)ccc(NCCNCCO)c21` [mitoxantrone], in data set [7], the “flow cytometry efflux assay” value is on record as “rightward inhibited peak shift for Abcg2a with mitoxantrone”.
In the case of `CN(C)C/C=C/C(=O)Nc1ccc(C(=O)N2CCC[C@@H](Nc3ncc(Cl)c(-c4c[nH]c5ccccc45)n3)C2)cc1` [THZ 531], the GI50 was 1.29 ± 0.14 µM in data set [1]; 18.3 ± 3.6 µM in [2]; 3.99 ± 0.24 µM in [3]; 11.4 ± 1 µM in data set [4]; 10.5 µM in data set [5]; 65.9 ± 3.7 µM in data set [6].
On to `Cc1nc(Nc2[nH]nc3c2CN(C(=O)N[C@H](CN(C)C)c2ccccc2)C3(C)C)c2sccc2n1` [PF-3758309], for which the GI50 in data set [1] stood at 0.068 ± 0.03 µM; in data set [2] it was 1.26 ± 0.53 µM; in [3], 1.54 ± 0.65 µM; in data set [4] it was 1.97 ± 0.71 µM; in data set [5], 0.413 ± 0.15 µM; in data set [6], 2.36 ± 0.54 µM.
Regarding `C=Cc1c(C)c2cc3nc(c4c5[nH]c(cc6nc(cc1[nH]2)C(C)=C6CC)c(C)c5C(=O)[C@@H]4C(=O)OC)[C@@H](CCC(=O)O)[C@@H]3C` [pheophorbide a], the “flow cytometry efflux assay” value in data set [7] is “to a greater extent with pheophorbide a, indicating Abcg2a can efflux both substrates”; in data set [8], “Pheophorbide a also appears to be a substrate for Abcg2b and Abcg2c”; in data set [9] it was “ABCG2-expressing cells exhibit an increase in intracellular fluorescence”; in [10], “Pheophorbide a also appears to be a substrate for Abcg2b and Abcg2c”.
Regarding `NS(=O)(=O)OC[C@H]1C[C@@H](Nc2ccnc3cc(-c4cccc(SC(F)(F)F)c4)nn23)[C@H](O)[C@@H]1O` [MLN 7243], the GI50 in data set [1] amounted to 0.069 ± 0.005 µM; in [3], 0.179 ± 0.023 µM; in data set [4], 0.2 ± 0.02 µM; in data set [5], 0.151 ± 0.051 µM; in data set [6], 15.4 ± 0.22 µM.
As to `C#Cc1cccc(Nc2ncnc3cc(OC)c(OCCCCCCC(=O)NO)cc23)c1` [CUDC-101], the GI50 in [1] was 0.78 ± 0.1 µM; in [2] it was 5.42 ± 1.4 µM; in data set [3] it was 1.04 ± 0.26 µM; in [4] it was 1.69 ± 0.29 µM; in data set [5], 2.09 ± 0.19 µM; in data set [6], 11.3 ± 2 µM.
As to `NS(=O)(=O)OC[C@@H]1C[C@@H](n2ccc3c(N[C@H]4CCc5ccccc54)ncnc32)C[C@@H]1O` [MLN 4924], the GI50 came out at 0.42 ± 0.09 µM in data set [1]; 2.44 ± 0.17 µM in [2]; 0.353 ± 0.19 µM in data set [3]; 0.487 ± 0.04 µM in data set [4]; 0.52 ± 0.052 µM in [5]; 7.32 ± 1.7 µM in data set [6].
